In the supplement of paper PMC10307832:

Tests used:
Experiment in all cases: relative viability (nuclei count vs DMSO), 5 days (fraction); higher = more cells survive
Sunitinib + Navitoclax = compound: CCN(CC)CCNC(=O)c1c(C)[nH]c(/C=C2\C(=O)Nc3ccc(F)cc32)c1C [Sunitinib] + CC1(C)CCC(c2ccc(Cl)cc2)=C(CN2CCN(c3ccc(C(=O)NS(=O)(=O)c4ccc(N[C@H](CCN5CCOCC5)CSc5ccccc5)c(S(=O)(=O)C(F)(F)F)c4)cc3)CC2)C1 [Navitoclax] (partner 0.5 µM)
Outline: (§1)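 Lung cancer cell lines were pin-tool dosed in 1536-well plates on the day after seeding, with either a lone drug or a fixed anchor-drug dose plus five library-drug doses (not always all listed) in √10 steps. Nuclei were counted on 4× images after 5 days. Relative viability is the ratio of treated-well to vehicle-well nuclei counts, with each value a median of duplicate plates.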

Sunitinib + Crizotinib = compound: CCN(CC)CCNC(=O)c1c(C)[nH]c(/C=C2\C(=O)Nc3ccc(F)cc32)c1C [Sunitinib] + C[C@@H](Oc1cc(-c2cnn(C3CCNCC3)c2)cnc1N)c1c(Cl)ccc(F)c1Cl [Crizotinib] (partner 1 µM)
Outline: as §1

Sunitinib + Dasatinib = compound: CCN(CC)CCNC(=O)c1c(C)[nH]c(/C=C2\C(=O)Nc3ccc(F)cc32)c1C [Sunitinib] + Cc1nc(Nc2ncc(C(=O)Nc3c(C)cccc3Cl)s2)cc(N2CCN(CCO)CC2)n1 [Dasatinib] (partner 0.075 µM)
Outline: as §1

Sunitinib + Vorinostat = compound: CCN(CC)CCNC(=O)c1c(C)[nH]c(/C=C2\C(=O)Nc3ccc(F)cc32)c1C [Sunitinib] + O=C(CCCCCCC(=O)Nc1ccccc1)NO [Vorinostat] (partner 1 µM)
Outline: as §1

Cell Line	relative viability (Sunitinib + Navitoclax; first compound 0.02 µM)	relative viability (Sunitinib + Navitoclax; first compound 0.06325 µM)	relative viability (Sunitinib + Navitoclax; first compound 0.2 µM)	relative viability (Sunitinib + Navitoclax; first compound 0.6325 µM)	relative viability (Sunitinib + Navitoclax; first compound 2 µM)	relative viability (Sunitinib + Crizotinib; first compound 0.02 µM)	relative viability (Sunitinib + Crizotinib; first compound 0.06325 µM)	relative viability (Sunitinib + Crizotinib; first compound 0.2 µM)	relative viability (Sunitinib + Crizotinib; first compound 0.6325 µM)	relative viability (Sunitinib + Crizotinib; first compound 2 µM)	relative viability (Sunitinib + Dasatinib; first compound 0.02 µM)	relative viability (Sunitinib + Dasatinib; first compound 0.06325 µM)	relative viability (Sunitinib + Dasatinib; first compound 0.2 µM)	relative viability (Sunitinib + Dasatinib; first compound 0.6325 µM)	relative viability (Sunitinib + Dasatinib; first compound 2 µM)	relative viability (Sunitinib + Vorinostat; first compound 0.02 µM)	relative viability (Sunitinib + Vorinostat; first compound 0.06325 µM)	relative viability (Sunitinib + Vorinostat; first compound 0.2 µM)	relative viability (Sunitinib + Vorinostat; first compound 0.6325 µM)	relative viability (Sunitinib + Vorinostat; first compound 2 µM)
ChaGo-K-1	0.911	1.02	0.978	0.914	0.936	1.06	1.14	1.34	1.22	1.12	0.529	0.753	0.575	0.571	0.598	0.736	0.831	0.887	0.773	0.746
LK-2	0.737	0.963	1.12	0.862	0.836	0.203	0.265	0.203	0.23	0.231	0.223	0.27	0.324	0.339	0.297	0.259	0.391	0.311	0.253	0.413
NCI-H2085		1.19	1.23	1.18	1.28	0.844	0.817	1.03	0.85	0.798	0.271	0.269	0.222	0.256	0.26	0.784	0.827	0.84	0.813	0.807
SW 1573	1.04	1.18	1.07	1.12	0.976	0.736	0.855		0.976	0.792	0.464	0.55	0.64	0.526	0.391	0.643	0.915	0.783	1.07	0.899
LCLC-97TM1	0.465	0.402		0.401	0.323	0.347	0.384		0.319	0.362	0.918	0.904	0.914	0.911	0.793	0.638	0.943	0.713	0.887	0.768
NCI-H647	0.988	1.18		1.24	1.22	0.988	0.998	1.19	1.15	0.941	0.164	0.291	0.228	0.183	0.161	0.469	0.572	0.795	0.648	0.643
NCI-H1915	0.764	0.765	0.833	0.815	0.805		0.911	0.998	0.911	0.966	0.302	0.346	0.322	0.34	0.296	0.483	0.538	0.562	0.5	0.505
CAL-12T	1.18	1.32	1.44	1.36	1.36	0.564	0.735	0.623	0.791	0.582	0.36	0.446	0.442	0.468	0.332	0.541	0.864	1.04	0.902	0.682
